This is an account of results in patent publication US20260335398A1, “METHODS FOR TREATING PANCREATIC CANCER WITH A COMBINATION OF DES-METHYL PATEAMINE A AND A CLASS I HDAC INHIBITOR” (Baylor University, priority 2023, published 2026).

Structures are written as SMILES.

One assay has as its system KLM and MIA PaCa-2 cells. Description: Nascent RNA synthesis by EU labeling (FIG. 9B). The class given is cell-based. To be noted: total 18 h, 5-EU incorporation. The protocol: FIG. 9B left panel compares EU-labeled nascent RNA and (Hoechst counterstain) in KLM cells treated with combination and single agents. Scale bar: 1 μm. FIG. 9B right panels present quantification of fluorescence intensities of nascent RNA synthesis in both KLM and MIA PaCa-2 cell lines. Statistical significance was determined by one-way ANOVA using Tukey multiple comparison's test, ****p value<0.0001, **p value<0.0002, **p value<0.002.
This apparent hypertranscription observed with the combination, was confirmed by the increase in nascent RNA output above the level of normal cells, following treatment for a total of 18 hours (i.e., 6-hour romidepsin followed by 12-hour washout with or without 2 nM DMPatA), quantified using incorporation of the modified RNA precursor 5-EU. […] Because HDAC inhibitors cause histone hyperacetylation and having observed the increase in gene expression following treatment with the combination, the impact of the combination on histone acetylation was assessed.
To detect changes in the global RNA transcription we used the Click-iT RNA Alexa Fluor 594 Imaging Kit (Invitrogen, #C10330). Briefly, cells were cultured in complete media and pulsed for 60 min with alkyne-modified nucleoside, 5-ethynyl uridine (EU) at a final concentration of 1 mM. […]

A further assay concerns MIA PaCa-2 xenograft. Description: MIA PaCa-2 xenograft model of PDAC, tumor growth (FIG. 2A). The class given is in vivo, athymic nude mice. Conditions: IP; romidepsin 0.75 mg/kg, DMPatA 0.075 mg/kg; once every four days 2 weeks, then every seven days 5-6 weeks. From the text: FIGS. 2A and 2B illustrate the results of a MIA PaCa-2 xenograft model of PDAC in male athymic nude mice. FIG. 2A compares tumor growth (mm^3) in mice treated with the indicated concentrations of combination, romidepsin and DMPatA using IP route and vehicles described in the materials and methods section below. FIG. 2B compares body weight (g) of mice treated with the combination and single agents following treatment. FIGS. 2C and 2D compare quantification of H3K9ac and c-MYC antibodies. Frozen sections from MIA PaCa-2 xenograft tumor tissues were subjected to immunohistochemical analysis using antibodies against H3K9ac, and c-MYC. Fluorescence images were captured using fluorescent microscopy and the fluorescent signal from H3K9ac and c-MYC antibodies were quantified. To quantify fluorescence intensity at least 500 cells per condition were measured for each antibody at 40× magnification. The median of the signal intensity is shown. Statistical significance was determined by one-way ANOVA using Tukey multiple comparisons test, ****p value<0.0001.
Animal studies were performed according to Institutional Animal Care and Use Committee (IACUC) protocol number AC-AABD2601. Following the establishment of initial dose levels for individual drugs, efficacy of the combination and single agents in a MIA PaCa-2 xenograft model was assessed at a tolerable dose and schedule. […]

Turning to `C/C=C1\NC(=O)[C@H]2CSSCC/C=C/[C@H](CC(=O)N[C@H](C(C)C)C(=O)N2)OC(=O)[C@H](C(C)C)NC1=O` [romidepsin], the “nascent RNA (mRNA) synthesis” value with KLM and MIA PaCa-2 cells is “increase in RNA synthesis”. Besides, the tumor volume result in the assay on MIA PaCa-2 xenograft was “regression in tumor volume”.
